Among the data in PubChem BioAssay (NCI) are TGI and GI50 values, retold here.

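The compound was tested at five concentrations on cells cultured in 96-well plates, with a 48-hour exposure period. GI50: concentration for 50% inhibition of growth. At the TGI there is no net growth.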

Test systems include CAKI-1 renal; CCRF-CEM leukemia; HCC-2998 colon; KM12 colon; RPMI-8226 leukemia; SK-MEL-2 melanoma; UACC-257 melanoma; HT29 colon; OVCAR-5 ovarian.
Holding throughout (assay): growth of human tumour cells (NCI), 48 h

With `C=CCC(C)(C(=O)NCCC)C(=O)c1ccccc1O` (stereo not given), the TGI in the assay with CAKI-1 renal, in the assay with CCRF-CEM leukemia, in the assay with HCC-2998 colon, in the assay with KM12 colon, in the assay with RPMI-8226 leukemia and in the assay with SK-MEL-2 melanoma was more than 100 µM in each case. Also, the TGI in the assay with UACC-257 melanoma is more than 100 µM.

In the case of `O=C1c2ccccc2C2(O)Oc3cccc(O)c3C12O` (stereo not given), the TGI in the assay on CAKI-1 renal, with CCRF-CEM leukemia, in the assay with HCC-2998 colon, in the assay with HT29 colon, in the assay with KM12 colon and in the assay with OVCAR-5 ovarian was more than 100 µM each time. Moreover, the TGI in the assay with RPMI-8226 leukemia, in the assay with SK-MEL-2 melanoma and in the assay with UACC-257 melanoma was more than 100 µM throughout.

Turning to `Cc1nn(C)c(=O)c2nn(-c3ccccc3)c(C)c12`, the TGI in the assay on CAKI-1 renal, in the assay with CCRF-CEM leukemia, in the assay on HCC-2998 colon, with HT29 colon, in the assay on KM12 colon and in the assay on OVCAR-5 ovarian was more than 100 µM in each case. The TGI in the assay with RPMI-8226 leukemia, in the assay on SK-MEL-2 melanoma and with UACC-257 melanoma was more than 100 µM in each case.

As to `CCOC(=O)C1(C(=O)OCC)CC=C(C)CC12C(=O)Nc1ccccc12` (stereo not given), the TGI with CAKI-1 renal, in the assay with CCRF-CEM leukemia, in the assay on HCC-2998 colon, with HT29 colon, in the assay with KM12 colon and with OVCAR-5 ovarian was more than 100 µM in each case. Besides, the TGI in the assay on RPMI-8226 leukemia and in the assay with SK-MEL-2 melanoma was more than 100 µM throughout.

As to `O=C1CCC(=O)C12CCc1cccc(O)c12`, the TGI in the assay with CAKI-1 renal, with HCC-2998 colon, with HT29 colon and in the assay on RPMI-8226 leukemia was more than 100 µM throughout.

For the compound `Cn1cnc([N+](=O)[O-])c1Sc1nnc(C(F)(F)F)n1C`, the TGI in the assay with CAKI-1 renal is more than 100 µM; in the assay on CCRF-CEM leukemia, 48.4 µM; in the assay with HCC-2998 colon, more than 100 µM; in the assay on HT29 colon it was more than 100 µM; in the assay on KM12 colon it was more than 100 µM; with OVCAR-5 ovarian, more than 100 µM. Moreover, the TGI was 49.9 µM with RPMI-8226 leukemia, 48.5 µM with SK-MEL-2 melanoma and 32.9 µM in the assay on UACC-257 melanoma.

As for `COc1cc(C(CC(OC)OC)=C(C#N)C#N)cc(OC)c1OC`, the TGI in the assay with CAKI-1 renal was more than 100 µM; in the assay with CCRF-CEM leukemia, 59.1 µM; with HCC-2998 colon, 40.4 µM; with HT29 colon, 73.4 µM; in the assay with KM12 colon, 60.5 µM; with OVCAR-5 ovarian, more than 100 µM. In addition, the TGI with SK-MEL-2 melanoma is 49.4 µM; in the assay on UACC-257 melanoma it was 36.9 µM.

For `COc1ccc(S(=O)(=O)N/N=C(\C)CN2C(=O)c3ccccc3C2=O)cc1`, the TGI in the assay with CAKI-1 renal, in the assay with CCRF-CEM leukemia, with HCC-2998 colon, with HT29 colon, in the assay on KM12 colon and with OVCAR-5 ovarian was more than 100 µM each time. In addition, the TGI in the assay with RPMI-8226 leukemia, in the assay on SK-MEL-2 melanoma and in the assay on UACC-257 melanoma was more than 100 µM throughout.

Regarding `CC1=N/C(=C\c2cccc3ccccc23)C(=O)O1`, the TGI in the assay with CCRF-CEM leukemia, with HCC-2998 colon, with HT29 colon, in the assay with KM12 colon, in the assay with OVCAR-5 ovarian and with RPMI-8226 leukemia was more than 100 µM in each case. Moreover, the TGI in the assay on SK-MEL-2 melanoma and in the assay on UACC-257 melanoma was more than 100 µM each time.

In the case of `CCCCCCCCCC(=O)N[C@H]1CCc2cc(OC)c(OC)c(OC)c2-c2ccc(SC)c(=O)cc21`, the GI50 in the assay with CAKI-1 renal is 5.27 µM. For the same compound, the TGI in the assay with CAKI-1 renal is more than 100 µM; in the assay with CCRF-CEM leukemia, more than 100 µM; in the assay with HCC-2998 colon, 0.0563 µM; in the assay with HT29 colon, 0.0645 µM; with KM12 colon, 0.0436 µM; with OVCAR-5 ovarian, more than 100 µM. In addition, the TGI with UACC-257 melanoma came out at 13.9 µM.

For `COC1(OC)c2ccccc2C2(O)c3ccccc3C(=O)C12` (stereo not given), the TGI in the assay on CCRF-CEM leukemia was 84.5 µM; in the assay with HCC-2998 colon, more than 100 µM; in the assay with HT29 colon, more than 100 µM; in the assay on KM12 colon it was more than 100 µM; with OVCAR-5 ovarian, more than 100 µM; in the assay with RPMI-8226 leukemia, 62.5 µM. Moreover, the TGI was more than 100 µM in the assay with SK-MEL-2 melanoma and 83.9 µM with UACC-257 melanoma.

Consider `O=C1NC(=S)NC(=O)C1=Cc1ccc2ccccc2n1`, for which the TGI with CAKI-1 renal, with CCRF-CEM leukemia, in the assay on HCC-2998 colon, with HT29 colon, with KM12 colon and with OVCAR-5 ovarian was more than 100 µM throughout. Also, the TGI in the assay on RPMI-8226 leukemia, with SK-MEL-2 melanoma and in the assay on UACC-257 melanoma was more than 100 µM throughout.

As for `COc1ccc(N2C(=O)C3c4[nH]c5ccccc5c4C4CCC(C(C)(C)C)CC4C3C2=O)cc1OC` (stereo not given), the TGI with CCRF-CEM leukemia is 98.5 µM; with HCC-2998 colon it was more than 100 µM; with HT29 colon it was more than 100 µM; with RPMI-8226 leukemia, 61.5 µM; with UACC-257 melanoma, more than 100 µM.

As to `OC(C(=Nc1ccccc1)c1ccccc1)c1ccccc1` (stereo not given), the TGI in the assay with CAKI-1 renal amounted to 30.3 µM; in the assay on CCRF-CEM leukemia, 27.9 µM; in the assay on HT29 colon it was 25.6 µM; in the assay on KM12 colon it was 10.4 µM; with OVCAR-5 ovarian, 82.3 µM; in the assay with RPMI-8226 leukemia, 71.1 µM. Further, the TGI turned out to be 6.47 µM in the assay with SK-MEL-2 melanoma and 5.56 µM with UACC-257 melanoma.

For the compound `CC1=N/C(=C\c2ccc([N+](=O)[O-])cc2)C(=O)O1`, the TGI in the assay with HCC-2998 colon, in the assay on HT29 colon, in the assay with KM12 colon, in the assay with OVCAR-5 ovarian, with RPMI-8226 leukemia and in the assay with SK-MEL-2 melanoma was more than 100 µM each time. For the same compound, the TGI in the assay on UACC-257 melanoma was more than 100 µM.

Consider `O=C1CCC2CCOc3ccc(O)c1c32` (stereo not given), for which the TGI with CCRF-CEM leukemia, in the assay with HCC-2998 colon, in the assay with HT29 colon, in the assay with KM12 colon, in the assay on OVCAR-5 ovarian and with RPMI-8226 leukemia was more than 100 µM in each case. Further, the TGI in the assay on SK-MEL-2 melanoma and with UACC-257 melanoma was more than 100 µM throughout.

For the compound `Oc1ccccc1C=Nc1ccccc1N=Cc1ccccc1O`, the TGI with CCRF-CEM leukemia, with HCC-2998 colon, in the assay with HT29 colon, with KM12 colon, with RPMI-8226 leukemia and in the assay on UACC-257 melanoma was more than 100 µM each time.
